How the values were obtained:
Experiment in all cases: relative viability (nuclei count vs DMSO), 5 days (fraction); higher = more cells survive
Crenolanib + Linsitinib = compound: CC1(COc2ccc3c(c2)ncn3-c2ccc3cccc(N4CCC(N)CC4)c3n2)COC1 [Crenolanib] + C[C@]1(O)C[C@@H](c2nc(-c3ccc4ccc(-c5ccccc5)nc4c3)c3c(N)nccn32)C1 [Linsitinib] (partner 1 µM)
Outline: (§1)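 Cells from lung cancer lines were seeded into 1536-well plates and, one day later, dosed by pin tool. Treatments were either a single drug or a fixed dose of an anchor drug with five library-drug doses (not always all listed) in √10 steps. After 5 days, nuclei were stained in a one-step fixation (final 0.05% Triton X-100, 1% formaldehyde, 1 ug/ml Hoechst) and counted on 4× images, and relative viability is the treated-to-vehicle nuclei ratio, as the median of duplicate plates.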

Tivantinib + Decitabine = compound: O=C1NC(=O)[C@@H](c2cn3c4c(cccc24)CCC3)[C@@H]1c1c[nH]c2ccccc12 [Tivantinib] + Nc1ncn([C@H]2C[C@H](O)[C@@H](CO)O2)c(=O)n1 [Decitabine] (partner 2 µM)
Outline: as §1

Tivantinib + Palbociclib = compound: O=C1NC(=O)[C@@H](c2cn3c4c(cccc24)CCC3)[C@@H]1c1c[nH]c2ccccc12 [Tivantinib] + CC(=O)c1c(C)c2cnc(Nc3ccc(N4CCNCC4)cn3)nc2n(C2CCCC2)c1=O [Palbociclib] (partner 0.5 µM)
Outline: as §1

Crenolanib + Crizotinib = compound: CC1(COc2ccc3c(c2)ncn3-c2ccc3cccc(N4CCC(N)CC4)c3n2)COC1 [Crenolanib] + C[C@@H](Oc1cc(-c2cnn(C3CCNCC3)c2)cnc1N)c1c(Cl)ccc(F)c1Cl [Crizotinib] (partner 1 µM)
Outline: as §1

Cell Line | relative viability (Crenolanib + Linsitinib; first compound 0.01 µM) | relative viability (Crenolanib + Linsitinib; first compound 0.03162 µM) | relative viability (Crenolanib + Linsitinib; first compound 0.1 µM) | relative viability (Crenolanib + Linsitinib; first compound 0.3162 µM) | relative viability (Crenolanib + Linsitinib; first compound 1 µM) | relative viability (Tivantinib + Decitabine; first compound 0.01 µM) | relative viability (Tivantinib + Decitabine; first compound 0.03162 µM) | relative viability (Tivantinib + Decitabine; first compound 0.1 µM) | relative viability (Tivantinib + Decitabine; first compound 0.3162 µM) | relative viability (Tivantinib + Palbociclib; first compound 0.01 µM) | relative viability (Tivantinib + Palbociclib; first compound 0.03162 µM) | relative viability (Tivantinib + Palbociclib; first compound 0.1 µM) | relative viability (Tivantinib + Palbociclib; first compound 0.3162 µM) | relative viability (Crenolanib + Crizotinib; first compound 0.01 µM) | relative viability (Crenolanib + Crizotinib; first compound 0.03162 µM) | relative viability (Crenolanib + Crizotinib; first compound 0.1 µM) | relative viability (Crenolanib + Crizotinib; first compound 0.3162 µM) | relative viability (Crenolanib + Crizotinib; first compound 1 µM)
201T | 1.05 | 1.04 | 1.01 | 1.04 | 1.11 | 0.829 | 0.861 | 0.839 | 0.81 | 0.368 | 0.386 | 0.364 | 0.348 | 1.04 | 1.02 | 1.01 | 1.04 | 0.976
A549 | 0.674 | 0.598 | 0.529 | 0.69 | 0.533 | 0.246 | 0.276 | 0.228 | 0.294 |  |  |  |  | 0.853 | 0.76 | 0.769 | 0.99 | 0.717
A-427 | 1.1 | 1.06 | 1.08 | 1.15 | 1.15 | 0.602 | 0.579 | 0.508 | 0.518 | 0.547 | 0.551 | 0.484 | 0.507 | 0.854 | 0.946 | 0.804 | 0.87 | 1.02
ABC-1 | 0.79 | 0.797 | 0.946 | 1.19 | 1.04 | 1.23 | 1.22 | 0.825 | 0.968 | 0.689 | 0.567 | 0.577 | 0.46 | 1.01 | 0.883 | 1.13 | 1.01 | 1.19
BEN | 1.03 | 0.895 | 0.83 | 0.848 | 0.911 | 0.755 | 0.69 | 0.631 | 0.796 | 0.446 | 0.474 | 0.508 | 0.447 | 0.89 | 0.839 | 0.863 | 0.763 | 0.847
CAL-12T | 0.967 | 0.7 | 0.768 | 0.869 | 0.846 |  |  |  |  | 0.409 | 0.345 | 0.347 | 0.185 | 0.66 | 0.709 | 0.704 | 0.816 | 0.787
COR-L23 | 1.06 | 1.02 | 0.884 | 1.15 | 0.88 | 0.496 | 0.446 | 0.433 | 0.445 | 0.343 | 0.304 | 0.268 | 0.325 | 0.678 | 0.722 | 0.577 | 0.718 | 0.667
COR-L 105 | 0.873 | 1.09 | 0.748 | 1.22 | 0.92 | 0.641 | 0.662 | 0.589 | 0.596 | 0.441 | 0.385 | 0.436 | 0.375 | 0.845 | 0.604 | 0.731 | 0.838 | 0.73
Calu-6 | 1.01 | 0.813 | 0.873 | 1.03 | 0.936 |  |  |  |  |  |  |  |  | 0.812 | 0.814 | 0.787 | 0.854 | 0.835
ChaGo-K-1 |  |  |  |  |  | 0.541 | 0.52 | 0.562 | 0.522 | 0.95 | 0.946 | 0.93 | 0.925 | 1.16 | 1.17 | 1.17 | 1.06 | 1.09
EBC-1 | 0.946 | 0.832 | 0.85 | 0.978 | 0.996 |  |  |  |  |  |  |  |  | 0.18 | 0.198 | 0.188 | 0.134 | 0.197
EKVX | 1.05 | 1.1 | 0.954 | 1.12 | 1.01 | 0.312 | 0.351 | 0.381 | 0.153 | 0.408 | 0.446 | 0.381 | 0.174 | 1.06 | 0.756 | 0.899 | 1.06 | 1
EMC-BAC-2 | 0.826 | 0.874 | 0.805 | 0.821 | 0.808 | 1.03 | 0.981 | 0.941 | 0.965 | 0.518 | 0.512 | 0.503 | 0.527 | 0.757 | 0.774 | 0.795 | 0.791 | 0.775
EPLC-272H |  | 1.19 | 0.982 | 1.18 | 1.06 | 0.389 | 0.331 | 0.383 | 0.31 | 0.298 | 0.323 | 0.308 | 0.273 |  | 0.855 | 0.877 | 0.918 | 1.01
H3255 | 0.923 | 0.872 | 0.92 | 0.938 | 1.04 |  | 0.53 | 0.591 | 0.27 | 0.298 | 0.303 | 0.331 |  | 1.07 | 0.806 | 0.889 | 0.85 | 0.825
HARA | 0.914 | 0.886 | 0.983 | 0.975 | 0.926 | 0.457 | 0.61 | 0.469 | 0.543 | 0.259 | 0.249 | 0.246 | 0.193 | 1.24 | 1 | 0.938 | 0.924 | 1
HCC-15 | 0.832 | 0.919 | 0.889 | 0.926 | 0.861 | 0.715 | 0.636 | 0.538 | 0.755 | 0.724 | 0.761 | 0.638 | 0.852 | 0.944 | 0.815 | 0.847 | 0.8 | 0.727
HCC-44 | 0.674 | 0.67 | 0.638 | 0.673 | 0.629 | 0.988 | 0.987 | 0.971 | 1.09 | 0.946 | 0.953 | 0.883 | 0.945 | 0.823 | 0.84 | 0.739 | 0.881 | 0.848
HCC-78 | 0.654 | 0.512 | 0.496 | 0.518 | 0.506 | 0.707 | 0.694 | 0.667 | 0.702 | 0.49 | 0.445 | 0.448 | 0.426 | 0.371 | 0.367 | 0.393 | 0.34 | 0.31
